Measurements published in US20120122148A1, “Media For The Specific Detection Of Gram-Negative Bacteria Resistant To Beta-Lactam Antibiotics” (bioMerieux, SA, priority 2009, published 2012).

What follows are compounds tested on Escherichia coli 0505101 (ESBL) (assay: Growth and enzymatic activity on ChromID CPS-based selective media). Conditions: 18 h at 37° C.; cefpodoxime 4 mg/l (T), cefepime 0.25 mg/l (A), cefamandole 3 mg/l (B), cefuroxime 3 mg/l (C), each with 300 mg/l cloxacillin.
Format: cell-based
Design: Enz act.: key to the marks not given beside the values
Description: (§1) Choice of strains: The inventors selected strains which make it possible to evaluate the activity of antibiotics with respect to Gram-negative species: enterobacteria and nonfermenting bacilli. In particular, ESBL-producing strains, high-level cephalosporinase-producing strains (HL Case) and strains without a particular resistance profile, termed wild-type strains, were used.
(§2) Preparation of media: The media tested were media composed of the peptone base of the ChromID CPS medium (bioMérieux ref 43541) to which were added, after autoclaving, in molten media, 300 mg/l cloxacillin and, for medium T: 4 mg/l cefpodoxime, for medium A: 0.25 mg/L of cefepime, for medium B: 3 mg/l of cefamandole and for medium C: 3 mg/l of cefuroxime.
(§3) Inoculation of media: The media are inoculated by carrying out a 3-quadrant streaking method using bacterial suspensions at 0.5 McF. The media are then incubated for 24 hours at 37° C.
(§4) Reading of media: The media are observed visually after 18 h and 24 hours of incubation, the growth density and also the colorations and coloration strengths are evaluated according to the scale below: • − or 0: absence of growth or of expression of enzymatic acitivity (i.e. no coloration) • +: weak growth, or enzymatic activity • ++: very strong growth density or strong enzymatic acitivity (very strong coloration)
For `CO/N=C(\C(=O)N[C@@H]1C(=O)N2C(C(=O)O)=C(COC(N)=O)CS[C@H]12)c1ccco1` [Cefuroxime, cefuroxime], the Enz act. was “++” and the Growth was “++”.

Same assay, conditions: 24 h at 37° C.; cefpodoxime 4 mg/l (T), cefepime 0.25 mg/l (A), cefamandole 3 mg/l (B), cefuroxime 3 mg/l (C), each with 300 mg/l cloxacillin
`CO/N=C(\C(=O)N[C@@H]1C(=O)N2C(C(=O)O)=C(COC(N)=O)CS[C@H]12)c1ccco1` [Cefuroxime, cefuroxime] was tested, and the Enz act. was “++” and the Growth was “++”.

Each compound was assayed on Klebsiella oxytoca 0502094 (ESBL) in the same assay as above. Conditions: 18 h at 37° C.; cefpodoxime 4 mg/l (T), cefepime 0.25 mg/l (A), cefamandole 3 mg/l (B), cefuroxime 3 mg/l (C), each with 300 mg/l cloxacillin.
Format: cell-based
Design: key to the marks not given beside the values
Description: as §1, §2, §3, §4
With `CO/N=C(\C(=O)N[C@@H]1C(=O)N2C(C(=O)O)=C(COC(N)=O)CS[C@H]12)c1ccco1` [Cefuroxime, cefuroxime] the Enz act. was “++” and the Growth was “++”.

Same assay, conditions: 24 h at 37° C.; cefpodoxime 4 mg/l (T), cefepime 0.25 mg/l (A), cefamandole 3 mg/l (B), cefuroxime 3 mg/l (C), each with 300 mg/l cloxacillin
In the case of `CO/N=C(\C(=O)N[C@@H]1C(=O)N2C(C(=O)O)=C(COC(N)=O)CS[C@H]12)c1ccco1` [Cefuroxime, cefuroxime], the Enz act. is reported as “++” and the Growth is reported as “++”.

What follows are compounds tested on Enterobacter spp 9306069 (HL case) in the same assay as above. Conditions: 18 h at 37° C.; cefpodoxime 4 mg/l (T), cefepime 0.25 mg/l (A), cefamandole 3 mg/l (B), cefuroxime 3 mg/l (C), each with 300 mg/l cloxacillin.
Format: cell-based
Design: key to the marks not given beside the values
Description: as §1, §2, §3, §4
`CO/N=C(\C(=O)N[C@@H]1C(=O)N2C(C(=O)O)=C(COC(N)=O)CS[C@H]12)c1ccco1` [Cefuroxime, cefuroxime] was tested, and the Enz act. was “++” and the Growth was “++”.

Same assay, conditions: 24 h at 37° C.; cefpodoxime 4 mg/l (T), cefepime 0.25 mg/l (A), cefamandole 3 mg/l (B), cefuroxime 3 mg/l (C), each with 300 mg/l cloxacillin
`CO/N=C(\C(=O)N[C@@H]1C(=O)N2C(C(=O)O)=C(COC(N)=O)CS[C@H]12)c1ccco1` [Cefuroxime, cefuroxime] was tested, and the Enz act. was “++” and the Growth was “++”.

Each compound was assayed on Enterobacter aerogenes 0502112 (ESBL) in the same assay as above. Conditions: 18 h at 37° C.; cefpodoxime 4 mg/l (T), cefepime 0.25 mg/l (A), cefamandole 3 mg/l (B), cefuroxime 3 mg/l (C), each with 300 mg/l cloxacillin.
Format: cell-based
Design: key to the marks not given beside the values
Description: as §1, §2, §3, §4
`CO/N=C(\C(=O)N[C@@H]1C(=O)N2C(C(=O)O)=C(COC(N)=O)CS[C@H]12)c1ccco1` [Cefuroxime, cefuroxime] was tested, and the Enz act. was “++” and the Growth was “++”.

Same assay, conditions: 24 h at 37° C.; cefpodoxime 4 mg/l (T), cefepime 0.25 mg/l (A), cefamandole 3 mg/l (B), cefuroxime 3 mg/l (C), each with 300 mg/l cloxacillin
In the case of `CO/N=C(\C(=O)N[C@@H]1C(=O)N2C(C(=O)O)=C(COC(N)=O)CS[C@H]12)c1ccco1` [Cefuroxime, cefuroxime], the Enz act. is reported as “++” and the Growth is reported as “++”.

The compounds below were run on Escherichia coli 0411146 (ESBL) in the same assay as above. Conditions: 18 h at 37° C.; cefpodoxime 4 mg/l (T), cefepime 0.25 mg/l (A), cefamandole 3 mg/l (B), cefuroxime 3 mg/l (C), each with 300 mg/l cloxacillin.
Format: cell-based
Design: key to the marks not given beside the values
Description: as §1, §2, §3, §4
For `CO/N=C(\C(=O)N[C@@H]1C(=O)N2C(C(=O)O)=C(COC(N)=O)CS[C@H]12)c1ccco1` [Cefuroxime, cefuroxime], the Enz act. was “++” and the Growth was “++”.

Same assay, conditions: 24 h at 37° C.; cefpodoxime 4 mg/l (T), cefepime 0.25 mg/l (A), cefamandole 3 mg/l (B), cefuroxime 3 mg/l (C), each with 300 mg/l cloxacillin
In the case of `CO/N=C(\C(=O)N[C@@H]1C(=O)N2C(C(=O)O)=C(COC(N)=O)CS[C@H]12)c1ccco1` [Cefuroxime, cefuroxime], the Enz act. is reported as “++” and the Growth is reported as “++”.

What follows are compounds tested on Proteus mirabilis 0105105 (HL case) in the same assay as above. Conditions: 18 h at 37° C.; cefpodoxime 4 mg/l (T), cefepime 0.25 mg/l (A), cefamandole 3 mg/l (B), cefuroxime 3 mg/l (C), each with 300 mg/l cloxacillin.
Format: cell-based
Description: as §1, §2, §3, §4
With `CO/N=C(\C(=O)N[C@@H]1C(=O)N2C(C(=O)O)=C(COC(N)=O)CS[C@H]12)c1ccco1` [Cefuroxime, cefuroxime] the Enz act. was “−” and the Growth was “−”.

Same assay, conditions: 24 h at 37° C.; cefpodoxime 4 mg/l (T), cefepime 0.25 mg/l (A), cefamandole 3 mg/l (B), cefuroxime 3 mg/l (C), each with 300 mg/l cloxacillin
In the case of `CO/N=C(\C(=O)N[C@@H]1C(=O)N2C(C(=O)O)=C(COC(N)=O)CS[C@H]12)c1ccco1` [Cefuroxime, cefuroxime], the Enz act. is reported as “−” and the Growth is reported as “−”.

These compounds were tested on Proteus mirabilis 0105109 (HL case) in the same assay as above. Conditions: 18 h at 37° C.; cefpodoxime 4 mg/l (T), cefepime 0.25 mg/l (A), cefamandole 3 mg/l (B), cefuroxime 3 mg/l (C), each with 300 mg/l cloxacillin.
Format: cell-based
Description: as §1, §2, §3, §4
`CO/N=C(\C(=O)N[C@@H]1C(=O)N2C(C(=O)O)=C(COC(N)=O)CS[C@H]12)c1ccco1` [Cefuroxime, cefuroxime] was tested, and the Enz act. was “++” and the Growth was “+”.

Same assay, conditions: 24 h at 37° C.; cefpodoxime 4 mg/l (T), cefepime 0.25 mg/l (A), cefamandole 3 mg/l (B), cefuroxime 3 mg/l (C), each with 300 mg/l cloxacillin
For `CO/N=C(\C(=O)N[C@@H]1C(=O)N2C(C(=O)O)=C(COC(N)=O)CS[C@H]12)c1ccco1` [Cefuroxime, cefuroxime], the Enz act. was “++” and the Growth was “+”.

Each compound was assayed on Proteus mirabilis 9709068 (ESBL) in the same assay as above. Conditions: 18 h at 37° C.; cefpodoxime 4 mg/l (T), cefepime 0.25 mg/l (A), cefamandole 3 mg/l (B), cefuroxime 3 mg/l (C), each with 300 mg/l cloxacillin.
Format: cell-based
Description: as §1, §2, §3, §4
`CO/N=C(\C(=O)N[C@@H]1C(=O)N2C(C(=O)O)=C(COC(N)=O)CS[C@H]12)c1ccco1` [Cefuroxime, cefuroxime] was tested, and the Enz act. was “+” and the Growth was “+”.

Same assay, conditions: 24 h at 37° C.; cefpodoxime 4 mg/l (T), cefepime 0.25 mg/l (A), cefamandole 3 mg/l (B), cefuroxime 3 mg/l (C), each with 300 mg/l cloxacillin
With `CO/N=C(\C(=O)N[C@@H]1C(=O)N2C(C(=O)O)=C(COC(N)=O)CS[C@H]12)c1ccco1` [Cefuroxime, cefuroxime] the Enz act. was “++” and the Growth was “+”.

The compounds below were run on Enterobacter spp 0503037 (Wild-type) in the same assay as above. Conditions: 18 h at 37° C.; cefpodoxime 4 mg/l (T), cefepime 0.25 mg/l (A), cefamandole 3 mg/l (B), cefuroxime 3 mg/l (C), each with 300 mg/l cloxacillin.
Format: cell-based
Description: as §1, §2, §3, §4
`CO/N=C(\C(=O)N[C@@H]1C(=O)N2C(C(=O)O)=C(COC(N)=O)CS[C@H]12)c1ccco1` [Cefuroxime, cefuroxime] was tested, and the Enz act. was “++” and the Growth was “++”.

Same assay, conditions: 24 h at 37° C.; cefpodoxime 4 mg/l (T), cefepime 0.25 mg/l (A), cefamandole 3 mg/l (B), cefuroxime 3 mg/l (C), each with 300 mg/l cloxacillin
With `CO/N=C(\C(=O)N[C@@H]1C(=O)N2C(C(=O)O)=C(COC(N)=O)CS[C@H]12)c1ccco1` [Cefuroxime, cefuroxime] the Enz act. was “++” and the Growth was “++”.

These compounds were tested on Morganella morganii 9904104 (HL case) in the same assay as above. Conditions: 18 h at 37° C.; cefpodoxime 4 mg/l (T), cefepime 0.25 mg/l (A), cefamandole 3 mg/l (B), cefuroxime 3 mg/l (C), each with 300 mg/l cloxacillin.
Format: cell-based
Description: as §1, §2, §3, §4
`CO/N=C(\C(=O)N[C@@H]1C(=O)N2C(C(=O)O)=C(COC(N)=O)CS[C@H]12)c1ccco1` [Cefuroxime, cefuroxime] was tested, and the Enz act. was “−” and the Growth was “−”.

Same assay, conditions: 24 h at 37° C.; cefpodoxime 4 mg/l (T), cefepime 0.25 mg/l (A), cefamandole 3 mg/l (B), cefuroxime 3 mg/l (C), each with 300 mg/l cloxacillin
With `CO/N=C(\C(=O)N[C@@H]1C(=O)N2C(C(=O)O)=C(COC(N)=O)CS[C@H]12)c1ccco1` [Cefuroxime, cefuroxime] the Enz act. was “−” and the Growth was “−”.

These compounds were tested on Klebsiella oxytoca 0105100 (HL case) in the same assay as above. Conditions: 18 h at 37° C.; cefpodoxime 4 mg/l (T), cefepime 0.25 mg/l (A), cefamandole 3 mg/l (B), cefuroxime 3 mg/l (C), each with 300 mg/l cloxacillin.
Format: cell-based
Description: as §1, §2, §3, §4
In the case of `CO/N=C(\C(=O)N[C@@H]1C(=O)N2C(C(=O)O)=C(COC(N)=O)CS[C@H]12)c1ccco1` [Cefuroxime, cefuroxime], the Enz act. is reported as “++” and the Growth is reported as “+”.

Same assay, conditions: 24 h at 37° C.; cefpodoxime 4 mg/l (T), cefepime 0.25 mg/l (A), cefamandole 3 mg/l (B), cefuroxime 3 mg/l (C), each with 300 mg/l cloxacillin
In the case of `CO/N=C(\C(=O)N[C@@H]1C(=O)N2C(C(=O)O)=C(COC(N)=O)CS[C@H]12)c1ccco1` [Cefuroxime, cefuroxime], the Enz act. is reported as “++” and the Growth is reported as “++”.

Each compound was assayed on Serratia fonticola 8001047 (Wild-type) in the same assay as above. Conditions: 18 h at 37° C.; cefpodoxime 4 mg/l (T), cefepime 0.25 mg/l (A), cefamandole 3 mg/l (B), cefuroxime 3 mg/l (C), each with 300 mg/l cloxacillin.
Format: cell-based
Description: as §1, §2, §3, §4
In the case of `CO/N=C(\C(=O)N[C@@H]1C(=O)N2C(C(=O)O)=C(COC(N)=O)CS[C@H]12)c1ccco1` [Cefuroxime, cefuroxime], the Enz act. is reported as “++” and the Growth is reported as “++”.

Same assay, conditions: 24 h at 37° C.; cefpodoxime 4 mg/l (T), cefepime 0.25 mg/l (A), cefamandole 3 mg/l (B), cefuroxime 3 mg/l (C), each with 300 mg/l cloxacillin
For `CO/N=C(\C(=O)N[C@@H]1C(=O)N2C(C(=O)O)=C(COC(N)=O)CS[C@H]12)c1ccco1` [Cefuroxime, cefuroxime], the Enz act. was “++” and the Growth was “++”.
